pIC50: −log10 of the molar value. Activity calls are given as the source filed them. The calls are words filed in the database; no cut-off is given here.
Legend:
Ishikawa [1] = assay: Potentiation of tamoxifen-induced antiestrogenic activity in human Ishikawa cells assessed as decrease in tamoxifen IC50 at 2 ug/ml after 4 days by ELISA; type: functional, cell-based
[2] = target: Anti-estrogen binding site (Rattus norvegicus); assay: Displacement of [3H]tamoxifen from antiestrogen binding site in Sprague-Dawley rat liver by liquid scintillation counting
Ishikawa [3] = assay: Potentiation of tamoxifen-induced antiestrogenic activity in human Ishikawa cells assessed as decrease in tamoxifen IC50 at 1 ug/ml after 4 days by ELISA; type: functional, cell-based
Ishikawa [4] = assay: Antiestrogenic activity in human Ishikawa cells assessed as inhibition of estrogen-induced alkaline phosphatase activity after 4 days by ELISA; conditions: 96 h

## CC(=O)O[C@H]1[C@@H](N2C(=O)c3ccccc3C2=O)[C@H](O)C[C@]2(C)[C@H]3CC[C@]4(C)[C@@H]([C@H](C)N(C)C)CC[C@H]4[C@@H]3CC[C@@H]12
Ishikawa [1]
  Activity: Active

## C[C@@H]([C@H]1CC[C@H]2[C@@H]3CC[C@H]4C(=O)C(NC(=O)c5ccccc5)=CC[C@]4(C)[C@H]3CC[C@]12C)N(C)C
Ishikawa [1]
  Activity: Active
[2]
  pIC50: 5.10

## CC(=O)O[C@H]1C(NC(=O)c2ccccc2)=CC[C@]2(C)[C@H]3CC[C@]4(C)[C@@H]([C@H](C)N(C)C)CC[C@H]4[C@@H]3CC[C@@H]12
Ishikawa [3]
  Activity: Active
[2]
  pIC50: 6.22

## CO[C@H]1CC[C@@]2(C)C(=CC[C@H]3[C@@H]4CC[C@H]([C@H](C)N(C)C)[C@@]4(C)CC[C@@H]32)C1
Ishikawa [1]
  Activity: Active
[2]
  pIC50: 6.40

## C[C@@H]([C@H]1CC[C@H]2[C@@H]3CC[C@H]4C[C@]5(CC[C@]4(C)[C@H]3CC[C@]12C)c1ccccc1C(=O)N5C)N(C)C
Ishikawa [1]
  Activity: Active
[2]
  pIC50: 5.13

## CC/C(=C(\c1ccccc1)c1ccc(OCCN(C)C)cc1)c1ccccc1 [TAMOXIFEN]
Ishikawa [4]
  pIC50: 6.38

## CC(C)[C@@H]1CN(C2=CC[C@@]3(C)[C@@H](CC[C@@H]4[C@@H]3CC[C@]3(C)[C@@H]([C@H](C)N(C)C)[C@@H](O)C[C@@H]43)C2=O)C1=O
Ishikawa [1]
  Activity: Active
[2]
  pIC50: 5.46

## CC(C)=CC(=O)N(C)[C@@H]1CC[C@@]2(C)[C@@H](CC[C@@H]3[C@@H]2CC[C@]2(C)[C@@H]([C@H](C)N(C)C)CC[C@@H]32)C1 [(+)-PACHYSAMINE B]
Ishikawa [3]
  Activity: Active
[2]
  pIC50: 6.22

## C[C@@H]([C@H]1CC[C@H]2[C@@H]3CC[C@H]4C[C@@H](NC(=O)c5ccccc5)CC[C@]4(C)[C@H]3CC[C@]12C)N(C)C [EPIPACHYSAMINE D]
Ishikawa [1]
  Activity: Active
[2]
  pIC50: < 4.70

## CC(C)[C@@H]1CN(C2=CC[C@@]3(C)[C@@H](CC[C@@H]4[C@@H]3CC[C@]3(C)[C@@H]([C@H](C)N(C)C)CC[C@@H]43)C2=O)C1=O
Ishikawa [1]
  Activity: Active
